# Measured values from US20240277772A1, “COMBINED ADMINISTRATION COMPOSITION FOR PREVENTING OR TREATING ATOPIC DERMATITIS, COMPRISING FUNCTION-ENHANCED STEM CELLS AND REGULATORY T CELLS” (SCM LIFESCIENCE CO., LTD., priority 2021, published 2024).
# Test system: mesenchymal stem cells
# Test: qRT-PCR of IDO and TSG6 expression in mesenchymal stem cells treated with priming candidates
# Assay type: cell-based
# Conditions: for expression of IDO / expression of TSG6: Table 1 compositions, 24 hours, FIG. 4, compared to untreated control or to single substances; for lowest effective concentration capable of inducing significantly increased expression of both TSG6 and IDO: stem cells treated 24 hours, TNF-α and IFN-γ at 5, 10, 20 ng/ml, IFN-α at 10, 20, 40 ng/ml, FIGS. 1-3
# Procedure: In a 37° C. and 5% CO2 incubator, mesenchymal stem cells in a storage state (LN2 tank storage) were thawed and cultured, and at this time, the cells were cultured in a medium (DMEM, alpha-MEM) containing 10% FBS or 4% hPL until proliferated to a cell confluence of about 80%. The cultured mesenchymal stem cells were seeded in a 100 mm dish and treated with candidate substances for enhancing the functions of the mesenchymal stem cells for 24 hours, and then the concentrations of primary candidate substances for enhancing the functions were set.
# TNF-α, IFN-γ, and IFN-α were selected as the primary candidate substances, and in order to confirm the lowest effective concentration capable of increasing the expression of TNFα-stimulated gene-6 (TSG6) and indoleamine 2,3-dioxygenase (IDO) to confirm the enhanced functions, the stem cells were treated with 5, 10, and 20 ng/ml of TNF-α, 5, 10, and 20 ng/ml of IFN-γ, and 10, 20, and 40 ng/ml of IFN-α, respectively, and changes in expression of TSG6 and IDO were confirmed.
# The IDO was known as an immunomodulatory factor that inhibited the proliferation of immune cells such as T cells by converting tryptophan, which was essential for T cell proliferation, into kynurenine, and the TSG6 was known as an anti-inflammatory regulator secreted from mesenchymal stem cells. After culturing the stem cells, total RNA was isolated using TRIzol (Invitrogen), and cDNA was synthesized from total RNA using PrimeScript™RT reagent Kit with gDNA Eraser (TaKaRa), and qRT-PCR was performed. The results of TSG6 and IDO according to the concentration of each candidate substance were illustrated in FIGS. 1, 2 and 3.
# Through Example 1, in order to search for more function-enhanced compositions based on the candidate substances and lowest effective concentrations identified to induce the enhanced functions of stem cells, selected candidate substances and combined concentrations thereof were set as shown in Table 1. Mesenchymal stem cells were treated with the candidate combinations described in Table 1 below for 24 hours, and the stem cells were cultured as in Example 1, and then total RNA was isolated using TRIzol (Invitrogen). Thereafter, qRT-PCR was performed by synthesizing cDNA from total RNA using the PrimeScript™RT reagent Kit with gDNA Eraser (TaKaRa).
# Vitamins were known to improve the proliferative ability of stem cells and maintain the stemness of stem cells when added during a stem cell culture process. Accordingly, various vitamins were treated in the stem cell culture process, and experiments were performed to confirm whether or not vitamins could achieve anti-inflammatory and immune function enhancing effects of stem cells. Specifically, the stem cells were treated with various types of vitamins shown in Table 2 below according to the method described in Example 1, and the results of confirming changes in expression of IDO and TSG6 according to treatment with each candidate substance were illustrated in FIG. 5.
Substance,expression of IDO,expression of TSG6,lowest effective concentration capable of inducing significantly increased expression of both TSG6 and IDO
IFN-α,increased expression,increased expression,20 ng/mL
"IFN-γ [priming factor for stem cells, 10 ng/ml]",increased expression,increased expression,10 ng/mL
TNF-α,increased expression,increased expression,10 ng/mL
